Source: PubChem BioAssay (NCI)
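Step 1: Grow cells in 96-well plates. Step 2: Expose to compound for 48 hours at 5 concentrations. Step 3: Interpolate endpoints linearly; if unreached, use highest concentration. TGI marks complete inhibition of growth.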 Where a SMILES comes first, the peptide text is derived from it. The star is where a group is joined. Cbz = O=C(OCc1ccccc1)*

Experiments:
Test in all cases: NCI anticancer screen, dose series, 48 h
[1] = system: SW-620 colon
[2] = system: 786-0 renal
[3] = system: HOP-92 NSCLC
[4] = system: ACHN renal
[5] = system: OVCAR-3 ovarian
[6] = system: NCI-H522 lung
[7] = system: HL-60(TB) leukemia
[8] = system: UO-31 renal
[9] = system: M14 melanoma
[10] = system: MDA-N
[11] = system: MDA-MB-231 breast
[12] = system: A498 renal
[13] = system: COLO 205 colon
[14] = system: HS 578T breast
[15] = system: MDA-MB-435
[16] = system: SK-MEL-28 melanoma
[17] = system: DU-145 prostate
[18] = system: RXF 393 renal
[19] = system: NCI-H226 lung
[20] = system: TK-10 renal
[21] = system: HOP-62 NSCLC
[22] = system: K-562 leukemia
[23] = system: SN12C renal
[24] = system: MOLT-4 leukemia
[25] = system: SNB-19 CNS
[26] = system: BT-549 breast
[27] = system: HCT-116 colon
[28] = system: UACC-62 melanoma
[29] = system: RPMI-8226 leukemia
[30] = system: CAKI-1 renal
[31] = system: OVCAR-8 ovarian
[32] = system: LOX IMVI melanoma
[33] = system: SF-295 CNS
[34] = system: U251 CNS
[35] = system: CCRF-CEM leukemia
[36] = system: MCF7 breast
[37] = system: A549 NSCLC
[38] = system: OVCAR-4 ovarian
[39] = system: SK-OV-3 ovarian
[40] = system: NCI-H23 lung
[41] = system: SK-MEL-2 melanoma
[42] = system: KM12 colon
[43] = system: UACC-257 melanoma
[44] = system: MALME-3M melanoma
[45] = system: IGROV1 ovarian
[46] = system: NCI-H460 lung
[47] = system: SF-268 CNS
[48] = system: HCT-15 colon
[49] = system: SK-MEL-5 melanoma
[50] = system: SR leukemia
[51] = system: T-47D breast
[52] = system: PC-3 prostate
[53] = system: OVCAR-5 ovarian
[54] = system: EKVX NSCLC
[55] = system: HT29 colon
[56] = system: SNB-75 CNS
[57] = system: NCI/ADR-RES ovarian
[58] = system: SF-539 CNS
[59] = system: HCC-2998 colon

`CC12CCC3c4ccc(O)cc4CCC3C1C/C(=N\O)C2O` (stereo not drawn) was tested, and the TGI [1] was greater than 100 µM, the TGI [2] was greater than 100 µM and the TGI [3] was greater than 100 µM. The TGI [4] was greater than 100 µM, the TGI [5] was greater than 100 µM and the TGI [6] was greater than 100 µM. It also gave a TGI [7] greater than 100 µM, a TGI [8] greater than 100 µM and a TGI [9] greater than 100 µM. It also gave a TGI [10] greater than 100 µM, a TGI [11] greater than 100 µM and a TGI [12] greater than 100 µM. It also gave a TGI [13] greater than 100 µM, a TGI [14] greater than 100 µM and a TGI [15] greater than 100 µM. It also gave a TGI [16] greater than 100 µM, a TGI [17] greater than 100 µM and a TGI [18] greater than 100 µM. The TGI [19] was greater than 100 µM, the TGI [20] was greater than 100 µM and the TGI [21] was greater than 100 µM. For the same molecule, the TGI [22] was greater than 100 µM, the TGI [23] was greater than 100 µM and the TGI [24] was greater than 100 µM. It also gave a TGI [25] greater than 100 µM, a TGI [26] greater than 100 µM and a TGI [27] greater than 100 µM. The TGI [28] was greater than 100 µM, the TGI [29] was greater than 100 µM and the TGI [30] was greater than 100 µM. For the same molecule, the TGI [31] was greater than 100 µM, the TGI [32] was greater than 100 µM and the TGI [33] was greater than 100 µM. It also gave a TGI [34] greater than 100 µM, a TGI [35] greater than 100 µM and a TGI [36] greater than 100 µM. The TGI [37] was greater than 100 µM, the TGI [38] was greater than 100 µM and the TGI [39] was greater than 100 µM. It also gave a TGI [40] greater than 100 µM, a TGI [41] greater than 100 µM and a TGI [42] greater than 100 µM. The TGI [43] was greater than 100 µM, the TGI [44] was greater than 100 µM and the TGI [45] was greater than 100 µM. The TGI [46] was greater than 100 µM, the TGI [47] was greater than 100 µM and the TGI [48] was greater than 100 µM. The TGI [49] was greater than 100 µM, the TGI [50] was greater than 100 µM and the TGI [51] was greater than 100 µM. It also gave a TGI [52] greater than 100 µM, a TGI [53] greater than 100 µM and a TGI [54] greater than 100 µM. For the same molecule, the TGI [55] was greater than 100 µM, the TGI [56] was greater than 100 µM and the TGI [57] was greater than 100 µM. For the same molecule, the TGI [58] was greater than 100 µM.

For `COC1=C(Br)[C@H](O)[C@@]2(C=C1Br)CC(C(=O)NCCCOc1c(Br)cc(C(O)CNC(C)=O)cc1Br)=NO2` (stereo partly drawn), the TGI [1] was greater than 10 µM, the TGI [2] was greater than 10 µM and the TGI [4] was greater than 10 µM. The TGI [5] was greater than 10 µM, the TGI [6] was greater than 10 µM and the TGI [7] was greater than 10 µM. It also gave a TGI [8] greater than 10 µM, a TGI [9] greater than 10 µM and a TGI [10] of 4.4 µM. It also gave a TGI [11] greater than 10 µM, a TGI [12] greater than 10 µM and a TGI [13] greater than 10 µM. It also gave a TGI [14] greater than 10 µM, a TGI [15] of 5.12 µM and a TGI [16] greater than 10 µM. For the same molecule, the TGI [17] was greater than 10 µM, the TGI [18] was greater than 10 µM and the TGI [19] was greater than 10 µM. It also gave a TGI [20] greater than 10 µM, a TGI [21] greater than 10 µM and a TGI [22] greater than 10 µM. It also gave a TGI [23] greater than 10 µM, a TGI [59] greater than 10 µM and a TGI [24] greater than 10 µM. The TGI [25] was greater than 10 µM, the TGI [26] was greater than 10 µM and the TGI [27] was greater than 10 µM. For the same molecule, the TGI [28] was greater than 10 µM, the TGI [29] was greater than 10 µM and the TGI [30] was greater than 10 µM. The TGI [31] was greater than 10 µM, the TGI [32] was greater than 10 µM and the TGI [33] was greater than 10 µM. For the same molecule, the TGI [34] was greater than 10 µM, the TGI [35] was greater than 10 µM and the TGI [36] was greater than 10 µM. It also gave a TGI [37] greater than 10 µM, a TGI [38] greater than 10 µM and a TGI [39] greater than 10 µM. It also gave a TGI [40] greater than 10 µM, a TGI [41] greater than 10 µM and a TGI [42] greater than 10 µM. The TGI [43] was greater than 10 µM, the TGI [44] was greater than 10 µM and the TGI [45] was greater than 10 µM. The TGI [46] was greater than 10 µM, the TGI [47] was greater than 10 µM and the TGI [48] was greater than 10 µM. The TGI [49] was greater than 10 µM, the TGI [50] was 1.77 µM and the TGI [51] was greater than 10 µM. It also gave a TGI [52] greater than 10 µM, a TGI [53] greater than 10 µM and a TGI [55] greater than 10 µM. For the same molecule, the TGI [56] was greater than 10 µM, the TGI [57] was greater than 10 µM and the TGI [58] was greater than 10 µM.

`CC(NC(=O)C(NC(=O)OCc1ccccc1)C(C)C)C(=O)NCC(=O)O` (stereo not drawn) (Cbz-Val-Ala-Gly-OH; configuration not given here) showed a TGI [1] greater than 100 µM, a TGI [2] greater than 100 µM and a TGI [3] greater than 100 µM. For the same molecule, the TGI [4] was greater than 100 µM, the TGI [5] was greater than 100 µM and the TGI [6] was greater than 100 µM. The TGI [8] was greater than 100 µM, the TGI [9] was greater than 100 µM and the TGI [10] was greater than 100 µM. The TGI [11] was greater than 100 µM, the TGI [13] was greater than 100 µM and the TGI [14] was greater than 100 µM. It also gave a TGI [15] greater than 100 µM, a TGI [16] greater than 100 µM and a TGI [17] greater than 100 µM. For the same molecule, the TGI [18] was greater than 100 µM, the TGI [19] was greater than 100 µM and the TGI [20] was greater than 100 µM. It also gave a TGI [21] greater than 100 µM, a TGI [22] greater than 100 µM and a TGI [23] greater than 100 µM. For the same molecule, the TGI [59] was greater than 100 µM, the TGI [24] was greater than 100 µM and the TGI [25] was greater than 100 µM. For the same molecule, the TGI [26] was greater than 100 µM, the TGI [27] was greater than 100 µM and the TGI [28] was greater than 100 µM. It also gave a TGI [29] greater than 100 µM, a TGI [30] greater than 100 µM and a TGI [31] greater than 100 µM. It also gave a TGI [33] greater than 100 µM, a TGI [34] greater than 100 µM and a TGI [36] greater than 100 µM. It also gave a TGI [37] greater than 100 µM, a TGI [39] greater than 100 µM and a TGI [40] greater than 100 µM. For the same molecule, the TGI [41] was greater than 100 µM, the TGI [42] was greater than 100 µM and the TGI [43] was greater than 100 µM. The TGI [44] was greater than 100 µM, the TGI [45] was greater than 100 µM and the TGI [46] was greater than 100 µM. It also gave a TGI [47] greater than 100 µM, a TGI [48] greater than 100 µM and a TGI [49] greater than 100 µM. For the same molecule, the TGI [50] was greater than 100 µM, the TGI [51] was greater than 100 µM and the TGI [52] was greater than 100 µM. It also gave a TGI [53] greater than 100 µM, a TGI [54] greater than 100 µM and a TGI [55] greater than 100 µM. For the same molecule, the TGI [57] was greater than 100 µM and the TGI [58] was greater than 100 µM.
